The values that follow come from patent publication US5916925A, “Pharmaceutical composition for treatment of dementia” (Takeda Chemical Industries, Ltd., priority 1996, dated 1999).

Series [1] deals with passive avoidance learning deficit in old rats. Kind of series: passive avoidance learning in old rats. In kind it is in vivo, rats of the Fischer 344 strain. As to conditions: idebenone 3 mg/kg, Compound A 0.3 mg/kg, oral, or both; for retention trials, learning deficit: 24 hours after shock loading. The protocol: (§1) The old rats were divided into the following four groups.
(§2) Passive avoidance learning tests were started on day 14 of treatment, and Morris water maze learning tests on day 20 of treatment.
The passive avoidance learning test was performed using a chamber consisting of light and dark compartments. […] After a rat moved to the dark compartment, the rat was kept there for about 10 seconds with the door closed. One to two hours after such habituation trials, acquisition trials were performed.
In acquisition trials, after a rat moved to the dark compartment, a foot shock (0.4 mA, 3 seconds) was given through the grid floor. Retention trials were performed 24 hours after acquisition trials.
In each trial, the latency from opening of the slide door till the animal moved to the dark compartment (step-through latency) was measured.

Series [2] relates to water maze learning deficit in old rats. Description: Morris water maze learning in old rats. In kind it is in vivo, rats of the Fischer 344 strain. As to conditions: for average latency to find the platform for all trials, vs control group / water maze learning deficit, overall: idebenone 3 mg/kg, Compound A 0.3 mg/kg, oral, or both. The protocol:
as §1, §2
In pretraining which was performed for swimming training and motivation for escaping from water, four trials were performed using a water bath, 80 cm in diameter, in a condition that the platform was visible. From the following day, using a water bath, 120 cm in diameter, learning trials, one session (four trials) per day, were performed with the platform being placed below the water.

The test system of series [3] is patients with senile dementia of Alzheimer's type. Kind of series: clinical study, safety assessment and dropouts. In kind it is in vivo, human. The note with it: for subjects dropped out: subjects in this study (groups not separated). The protocol: (§3) In patients with senile dementia of Alzheimer's type, a double-blind placebo controlled multicenter comparative study was conducted under the conditions shown below.
(§4) 451 patients with senile dementia of Alzheimer's type (154 males, 297 females)
(§5) (1) Placebo administration
Group 3 (placebo administration), 153 patients (54 males, 99 females; average age 70 years)
(§6) Oral administration just after every meal
(§7) Clinical laboratory values

Series [4] shares this test system. Description: double-blind placebo controlled multicenter study, efficacy parameters (ADAS, CGI, NOSGER, SKT). The series is classed as in vivo, human. The method, then: as §3, §5, §6
The test system is the same in series [5]. The note with it: 90 mg per day per adult; cited from earlier work.
The next series has as its system GOT. Description: hepatic clinical laboratory value GOT in patients. The series is classed as in vivo, human. As to conditions: for GOT Level: single patients. The protocol: as §3, §4, §5, §6, §7
A further series relates to GPT. Kind of series: hepatic clinical laboratory value GPT in patients. The series is classed as in vivo, human. As to conditions: for GPT Level: single patients. The protocol:
as §3, §4, §5, §6, §7

In the next series the test system is patients. As to conditions: cited from earlier work.
Where [6] appears, read: 90 mg, 120 mg 3-times-a-day and placebo.
The mark [7] stands for this setting: 6 Months of Administration, 90 mg 3 times daily.
The mark [8] stands for this setting: 6 Months of Administration, 120 mg 3 times daily.
Setting [9] is: 270 or 360 mg per day, 6 months, vs placebo.
The mark [10] stands for this setting: Pre-administration (baseline), 90 mg 3 times daily group.
The mark [11] stands for this setting: Pre-administration (baseline), 120 mg 3 times daily group.

Where “and” joins values, the source holds several entries; their conditions need not be identical. Identical values can stand only once. Counter-ions that a name gives are not always drawn. Like-named read-outs stand apart in the source and are kept apart here.

For `O=C(CCC1CCN(Cc2ccccc2)CC1)c1ccc2c(c1)NCCCC2` [Compound A, 8-[1-oxo-3-(phenylmetyl)piperidin-4-yl]propyl]-2,3,4,5-tetrahydro-1H-1-benzazepine fumarate], in series [1], the “retention trials, learning deficit” value is reported as “tended to show improvements in learning deficit in old rats but the effect was not significant” and the “passive avoidance learning deficit, overall” value is on record as “did not improve passive avoidance learning deficit in old rats”. Moreover, in series [2] (day 2 of experiment), the “water maze learning (latency to find the platform)” value is recorded as “significant improvement”. The “water maze learning (latency to find the platform)” value in series [2] (day 3 of experiment) is “did not differ from the control group”. Further, in series [2], the “average latency to find the platform for all trials, vs control group” value is “did not show significant shortening of average latency compared with the control group” and the “water maze learning deficit, overall” value is “did not improve water maze learning deficit in old rats”.

As to `COC1=C(OC)C(=O)C(CCCCCCCCCCO)=C(C)C1=O` [idebenone, 6-(10-hydroxydecyl) -2,3-dimethoxy-5-methyl-1,4-benzoquinone], in series [1], the “retention trials, learning deficit” value was “tended to show improvements in learning deficit in old rats but the effect was not significant”. In addition, in series [1], the “passive avoidance learning deficit, overall” value was “did not improve passive avoidance learning deficit in old rats”. Moreover, the “incidence and severity of accompanying symptoms” value in series [3] (90 mg and 120 mg 3-times-a-day vs placebo) is “No differences were noted among the three groups”. Besides, the results for the subjects dropped out in series [3] (by 6 months) and in series [3] (by 12 months) were 9% and “about 15%”, respectively. Also, the “elevation of clinical laboratory values (GOT and GPT)” value in series [3] (idebenone administration groups) was “very low”. Further, the “major objective and subjective symptoms” value in series [3] (three groups together) is “vertigo, anorexia, sleep disturbance and arthralgia”. In addition, the “ADAS Sum Score, relief compared with placebo” value in series [4] (90 mg 3-times-a-day, 6 months) is “significant relief”; in series [4] (90 mg 3-times-a-day, 12 months), “significant relief”; in series [4] (120 mg 3-times-a-day, 6 months), “significant relief”; in series [4] (120 mg 3-times-a-day, 12 months), “significant relief”. In addition, the “ADAS Sum Score, dose dependence of effect” value in series [4] (90 mg and 120 mg 3-times-a-day, 6 and 12 months) is reported as “dose dependent”. The “ADAS Cognitive Score, differences among groups” value in series [4] (setting [6]) is “significant differences among the three groups were noted, with dose dependency”. Besides, the “CGI Global Improvement, differences among groups” value in series [4] (setting [6]) is recorded as “significant differences among the three groups were noted, with dose dependency”. In addition, the “CGI Severity of Disease, differences among groups” value in series [4] (setting [6]) is listed as “significant differences among the three groups were noted, with dose dependency”. In addition, in series [4] (setting [6]), the “NOSGER IADL, differences among groups” value is reported as “significant differences among the three groups were noted, with dose dependency”. The “NOSGER Sum Score, differences among groups” value in series [4] (setting [6]) is “significant differences among the three groups were noted, with dose dependency”. Also, the “SKT, differences among groups” value in series [4] (setting [6]) is listed as “significant differences among the three groups were noted, with dose dependency”. Moreover, the “effect in comparison with published clinical data on tacrine” value in series [4] (270 mg (90 mg, 3-times-a-day)) was “better effects”; in series [4] (360 mg (120 mg, 3-times-a-day)) it was “better effects”. Besides, the “magnitude of effect, irrespective of assessment method” value in series [4] (360 mg idebenone administration group) was “marked effect”. For the same compound, in series [4] (FIGS. 1 to 7), the symptom progression result is “symptom progression was surely suppressed”. The “symptom-relieving and symptom progression-suppressing effects, 12 months vs 6 months” value in series [4] (period exceeding 6 months) is “greater symptom-relieving and symptom progression-suppressing effects are noted at 12 months than at 6 months”. Besides, in series [5], the “efficacy in senile dementia of Alzheimer's type” value is given as “effective”. The “GOT Level” value was 45 U/L and 38 U/L and 60 U/L and 86 U/L and 49 U/L and 32 U/L and 47 U/L and 26 U/L and 29 U/L with GOT (setting [7]); 41 U/L and 27 U/L and 28 U/L and 34 U/L and 37 U/L and 23 U/L and 131 U/L with GOT (setting [8]); 19 U/L and 27 U/L and 33 U/L and 32 U/L and 15 U/L and 29 U/L and 13 U/L and 22 U/L with GOT (setting [10]); 23 U/L and 24 U/L and 29 U/L and 21 U/L and 25 U/L with GOT (setting [11]). The “change in GOT level” value with GOT (setting [9]) was “little change in GPT level and GOT level”. The “average latency to find the platform for all trials, vs control group” value in series [2] is recorded as “did not show significant shortening of average latency compared with the control group”. Further, the “water maze learning deficit, overall” value in series [2] was “did not improve water maze learning deficit in old rats”. In series [2] (latter period of training, idebenone 3 mg/kg oral), the “water maze learning deficit (latency to find the platform)” value was “slight tendency toward improvement in water maze learning deficit”. The “GPT Level” value in the series with GPT (setting [7]) is 61 U/L and 54 U/L and 34 U/L and 43 U/L and 26 U/L and 37 U/L and 35 U/L and 50 U/L; in the series with GPT (setting [8]), 26 U/L and 39 U/L and 43 U/L and 55 U/L and 25 U/L and 38 U/L and 60 U/L; in the series on GPT (setting [10]), 25 U/L and 34 U/L and 36 U/L and 63 U/L and 9 U/L and 14 U/L and 29 U/L and 33 U/L; in the series on GPT (setting [11]), 22 U/L and 14 U/L and 28 U/L and 29 U/L and 37 U/L and 31 U/L. Further, the “change in GPT level” value with GPT (setting [9]) was “little change in GPT level and GOT level”.

Regarding `Nc1c2c(nc3ccccc13)CCCC2` [tacrine], the “patients who withdrew from the treatment” value with patients (30-week administration of tacrine) is given as 74%. Further, the subjects dropped out with patients (high-dose tacrine group, by 30 weeks) was 74%; in the series on patients (low-dose tacrine group, until final administration by 30 weeks) it was 59%; in the series with patients (moderate-dose tacrine group, by 30 weeks) it was 71%. Further, the “dropouts or discontinuations due to adverse reactions” value in the series on patients (tacrine, study period) is recorded as “a large number of dropouts or discontinuations occurred due to adverse reactions”. In addition, the “adverse effects on long-term administration” value with patients (tacrine) is “hepatic toxicity”.
